Measured values from PubChem BioAssay (NCI).
Where “and” joins values, the source holds several entries; their conditions need not be identical. Equal entries are not always repeated.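 Exposure lasted 48 hours, with cells grown in 96-well plates and compounds tested at five concentrations. The concentration for 50% growth inhibition is given as GI50. TGI: concentration producing complete growth inhibition.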

Columns and labels:
Assay in all cases: NCI tumour cell line growth inhibition, 48 h
[1] = tested on: MDA-N
[2] = tested on: DLD-1 colon
[3] = tested on: DMS 273 small cell lung
[4] = tested on: RXF-631 renal
[5] = tested on: XF 498 CNS
[6] = tested on: DMS 114 small cell lung
[7] = tested on: HOP-18 NSCLC
[8] = tested on: KM20L2 colon
[9] = tested on: LXFL 529 NSCLC

| SMILES | TGI [1] [µM] | TGI [2] | TGI [3] | TGI [4] [µM] | TGI [5] | TGI [6] | TGI [7] [µM] | TGI [8] | TGI [9] | also measured |
| --- | --- | --- | --- | --- | --- | --- | --- | --- | --- | --- |
| COC(=O)CC[C@@H](C)[C@H]1CC[C@H]2[C@@H]3CC[C@@H]4C[C@H](O)CC[C@]4(C)[C@H]3CC[C@]12C | 35.6 | – | – | – | – | – | – | – | – | – |
| O=C(NC1CCC[C@H]1OC(=O)c1ccccc1)c1ccccc1 (some centres undefined) | – | > 100 µM | > 100 µM | > 100 | > 100 µM | – | – | – | – | – |
| [N-]=[N+]=C(C(=O)CN1CCCC1=O)S(=O)(=O)c1ccccc1 | > 100 | – | – | – | – | – | – | – | – | – |
| CC(C)N1CC2CC(CN(C(=O)c3ccc(Cl)cc3)C2)C1 | – | – | > 100 µM | > 100 | > 100 µM | > 100 µM | > 100 | > 100 µM | > 100 µM | – |
| COc1ccc(C(C2=C(O)CC(C)OC2=O)C2=C(O)CC(C)OC2=O)cc1 (centres undefined) | – | > 100 µM | > 100 µM | > 100 | – | > 100 µM | – | > 100 µM | > 100 µM | – |
| CCC(O)CCCCCCCCCCCCCCC(=O)O (centres undefined) | – | > 100 µM | > 100 µM | > 100 | > 100 µM | > 100 µM | > 100 | – | > 100 µM | – |
| O=C1OC(OC/C(Br)=C(\Br)COC2OC(=O)C(Cl)=C2Cl)C(Cl)=C1Cl (centres undefined) | 14.3 | – | – | – | – | – | – | – | – | – |
| C=CCC1(CN(C)C)CC/C(=C\c2ccc3c(c2)OCO3)C1=O (centres undefined) | – | 81.1 µM | > 100 µM | 78.4 | – | – | > 100 | > 100 µM | > 100 µM | – |
| COc1cc2[nH]c3c(c2cc1OC)CCN[C@@]31CC[C@@]2(CC3c4c(cc(OC)c(O)c42)CCN3C)C[C@@H]1OC (some centres undefined) | 35.9 | > 100 µM | > 100 µM | 25.2 | 32.4 µM | 37.2 µM | > 81.7 | 86.3 µM | > 100 µM | – |
| C[C@]12CCC(=O)C=C1C[C@@H](O)[C@@H]1[C@@H]2CC[C@@]2(C)[C@H]1CC[C@]2(C)O | > 100 | – | – | – | – | – | – | – | – | – |
| C=C1C(=O)O[C@@H]2/C=C(/C)[C@@H](OC(C)=O)C[C@@H](O)/C(C)=C\[C@@H](OC(=O)[C@]3(C)O[C@@H]3C)[C@@H]12 | 30.1 | – | – | – | – | – | – | – | – | – |
| CC1=C(CCC(C)CO)O[C@H]2C[C@H]3[C@@H]4CC[C@H]5C[C@@H](O)CC[C@]5(C)[C@H]4CC(=O)[C@]3(C)[C@@H]12 (some centres undefined) | 45.4 | – | – | – | – | – | – | – | – | – |
| O=C(CC12C3C4C1C1C2C3C41CC(=O)NO)NO (centres undefined) | – | > 100 µM | > 100 µM | > 100 | > 100 µM | 60.6 µM | – | > 100 µM | > 100 µM | – |
| CC1(c2ccc(F)cc2)C2C(=O)NC(=O)C1C(=O)NC2=O (centres undefined) | – | > 100 µM | > 100 µM | – | > 100 µM | > 100 µM | – | > 100 µM | > 100 µM | – |
| CSc1ccc(N2C(=O)C3c4[nH]c5ccccc5c4C4CCC(C(C)(C)C)CC4C3C2=O)cc1 (centres undefined) | – | > 100 µM | 25.3 µM | – | > 100 µM | 63.5 µM | 53.5 | > 100 µM | 47.5 µM | – |
| CCO/C=C\C12CCCC1NC(c1ccccc1)(c1ccccc1)O2 (centres undefined) | – | > 100 µM | > 100 µM | – | – | 79.5 µM | – | 57.9 µM | 74.5 µM | – |
| O=C(Nc1ccc(Br)cc1)C(=O)C(C(=O)c1ccc(Cl)c(Cl)c1)C1OC(=O)c2ccccc21 (centres undefined) | – | 39.6 µM | 60 µM | – | 96.2 µM | 28.6 µM | 77 | > 100 µM | 23.2 µM | – |
| Cc1cc(N(CCC#N)S(=O)(=O)c2ccccc2)ccc1C=Nc1ccc(C(=O)O)cc1 | > 100 | 4.11 µM | 17.5 µM | – | 22.5 µM | 10.1 µM | 16.6 | 28.6 µM | 3.52 µM | – |

| SMILES | TGI [1] [µM] | TGI [2] | TGI [3] | TGI [4] [µM] | TGI [5] | TGI [6] | TGI [7] [µM] | TGI [8] | TGI [9] | also measured |
| --- | --- | --- | --- | --- | --- | --- | --- | --- | --- | --- |
| Cc1cc(-c2ccccc2)nc(Nc2cc3ccccc3[nH]2)n1 | – | > 100 µM | – | – | > 100 µM | > 100 µM | – | > 100 µM | > 100 µM | – |
| O=C1c2ccccc2C(=O)N1CC#CCO | – | – | > 100 µM | > 100 | > 100 µM | – | – | – | > 100 µM | – |
| CC(=O)C(CN1C(=O)c2ccccc2C1=O)C(C)=O | > 100 | – | – | – | – | – | – | – | – | – |
| COc1cc(C2c3cc4c(cc3[C@@H](NC3CCN(Cc5ccccc5)CC3)C3COC(=O)[C@H]23)OCO4)cc(OC)c1O (some centres undefined) | – | 3.11 µM and 2.26 µM | 0.558 µM and 0.18 µM | – | 2.34 µM and 1.4 µM | 1.96 µM and 0.316 µM | – | 3.28 µM and 0.841 µM | 4.4 µM and 2.72 µM | GI50 [6]: 0.169 µM and 0.0639 µM; GI50 [3]: 0.114 µM and 0.0219 µM; GI50 [9]: 1.1 µM and 0.438 µM; GI50 [5]: 0.377 µM and 0.132 µM |
| CCCCCCCCCCCCCCNCC(OC)OC | – | 28.6 µM | 33 µM | 31.2 | 31.7 µM | 29.3 µM | 26.4 | 28.8 µM | 30 µM | – |
| OC1OCC(COc2cc(Cl)c(Cl)cc2Cl)OC1O (centres undefined) | – | > 100 µM | > 100 µM | > 100 | – | 88.3 µM | 90.8 | > 100 µM | > 100 µM | – |
| COc1ccc(N=NC2=C(O)CCC2=O)cc1 | – | > 100 µM | > 100 µM | > 100 | – | > 100 µM | > 100 | – | – | – |
| CC1(C)CC(=O)C(CC2C(=O)CCCC2=O)C(=O)C1 | – | > 100 µM | > 100 µM | – | > 100 µM | > 100 µM | > 100 | > 100 µM | > 100 µM | – |
| CC1(C)OCC2OC(n3cnc4c(N)nc(Cl)nc43)C(OS(C)(=O)=O)C2O1 (centres undefined) | > 100 | – | – | – | – | – | – | – | – | – |
| CCC(=O)OCOc1ccc(/C=C2\CCC(CN(C)C)C2=O)cc1 (centres undefined) | 16.5 | 5.54 µM | 15.2 µM | > 61.2 | 4.15 µM | 56.4 µM | 28.8 | 32.6 µM | 9.27 µM | – |
| O=[N+]([O-])c1ccc2c(c1)C(N1CCN(CCO)CC1)Cc1ccc(F)cc1S2 (centres undefined) | 24.1 | – | – | – | – | – | – | – | – | – |
| CCCCCCCCCC1CC(=O)OC2=C1C(=O)CCC2 (centres undefined) | – | > 100 µM | > 100 µM | > 100 | > 100 µM | > 100 µM | > 100 | > 100 µM | > 100 µM | – |
| Clc1ccc2c(NC3CCC(N4CCCCC4)CC3)ccnc2c1 (centres undefined) | 33.2 | – | – | – | – | – | – | – | – | – |
| NC(=O)NNC/C(Cl)=C(\Cl)C(=O)O | – | > 100 µM | > 100 µM | – | > 100 µM | > 100 µM | > 100 | > 100 µM | > 100 µM | – |
| C/C(=N\N=C(N)N)C(CN1CCOCC1)C(c1ccccc1)c1c(O)c2ccccc2oc1=O (centres undefined) | – | > 100 µM | > 100 µM | – | > 100 µM | > 100 µM | > 100 | > 100 µM | > 100 µM | – |
| Cc1ccc2ccccc2c1CSc1nc(N)nc2c1ncn2CC(C)C | > 100 | – | – | – | – | – | – | – | – | – |
| O=C1C=CC2C3C(=O)N(c4ccccc4)C(=O)C3C1N2Cc1ccccc1 (centres undefined) | 10.9 | – | – | – | – | – | – | – | – | GI50 [1]: 3.14 µM |
